Legend:
T2R04 (TAS2R04) = biological target: T1, T2R04 (TAS2R04) (Homo sapiens, UniProt Q9NYW5); test: FLIPR calcium assay, block of bitter agonist response, T2R04; assay type: cell-based; details: unsaturated fatty acid concentration of 200 µM, cells stimulated with known bitter agonist
T1 construct: expressed in transfected cells; host or cells: cells expressing a promiscuous G protein (e.g., G16g44)
T1 sequence (Q9NYW5 1-299): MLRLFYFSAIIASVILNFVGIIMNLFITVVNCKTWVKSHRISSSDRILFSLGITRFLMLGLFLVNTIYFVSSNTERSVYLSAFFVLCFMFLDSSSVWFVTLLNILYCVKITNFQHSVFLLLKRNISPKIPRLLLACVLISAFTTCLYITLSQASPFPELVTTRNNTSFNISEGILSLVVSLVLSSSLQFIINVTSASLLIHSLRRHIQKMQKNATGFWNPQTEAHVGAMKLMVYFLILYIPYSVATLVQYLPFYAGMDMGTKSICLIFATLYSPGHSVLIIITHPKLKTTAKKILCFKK
Description: (§1) Cells expressing a promiscuous […] (e.g., G16g44) were transfected with vectors encoding 18 functional bitter receptor cDNAs, with one receptor per transfection. The cells were transfected directly in 384-well format high-density plates and incubated for 28 hours. Later, cells were loaded with the Ca-specific dye Fluo4-AM. After an incubation of 60 minutes, excess dye is washed off, and cells are stimulated with a known bitter agonist for each receptor and various unsaturated fatty acids. Changes in intracellular fluorescence are recorded using a FLIPR instrument. Bitter antagonists and corresponding receptors are identified based on percentage inhibition of agonist's activity on a given receptor.
The above protocol was carried out using 16 different unsaturated fatty acids. A particular T2R receptor was identified as being antagonized by a particular unsaturated fatty acid if it triggered a >25% block of agonist's cellular response at 200 μM concentration of unsaturated fatty acid. […] Table 2 indicates the sixteen (16) compounds tested by their compound number from Table 1 above. The 18 bitter taste receptors screened are the human bitter taste receptors we named. […]

T2R54 (TAS2R39) = biological target: T2, T2R54 (TAS2R39 (Homo sapiens, UniProt P59534)); test: FLIPR calcium assay, block of bitter agonist response, T2R54; assay type: cell-based; details: unsaturated fatty acid concentration of 200 µM, cells stimulated with known bitter agonist
T2 construct: expressed in transfected cells; host or cells: cells expressing a promiscuous G protein (e.g., G16g44)
T2 sequence (P59534 1-338): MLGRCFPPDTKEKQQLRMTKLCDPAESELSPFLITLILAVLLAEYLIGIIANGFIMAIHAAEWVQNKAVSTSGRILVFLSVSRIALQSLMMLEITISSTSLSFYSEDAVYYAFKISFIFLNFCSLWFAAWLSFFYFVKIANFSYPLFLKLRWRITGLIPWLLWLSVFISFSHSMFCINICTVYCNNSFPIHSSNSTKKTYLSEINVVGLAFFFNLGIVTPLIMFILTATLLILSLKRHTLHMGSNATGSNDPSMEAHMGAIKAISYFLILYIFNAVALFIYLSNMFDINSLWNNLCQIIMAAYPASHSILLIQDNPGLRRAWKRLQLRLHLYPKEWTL
Description: as §1
The above protocol was carried out using 16 different unsaturated fatty acids. A particular T2R receptor was identified as being antagonized by a particular unsaturated fatty acid if it triggered a >25% block of agonist's cellular response at 200 μM concentration of unsaturated fatty acid. […] Table 2 indicates the sixteen (16) compounds tested by their compound number from Table 1 above. The 18 bitter taste receptors screened are the human bitter taste receptors we named. T2R01 (TAS2R01), T2R03 (TAS2R03), T2R04 (TAS2R04), T2R07 (TAS2R07), T2R08 (TAS2R08), T2R09 (TAS2R09), T2R10 (TAS2R10), T2R13 (TAS2R13), T2R14 (TAS2R14), T2R16 (TAS2R16), T2R54 (TAS2R39, T2R61 (TAS2R43), T2R63 (TA2R20), T2R64 (TAS2R31), T2R65 (TAS2R19), T2R67 (TAS2R50), T2R71 (TAS2R41), and T2R75 (TAS2R46). The corresponding IUPHAR nomenclature for each receptor is given in parenthesis. In Table 2, these receptors are identified by the last two digits. For example, T2R01 is indicated as 01. Table 2 reports the percentage block of cellular response over baseline at an unsaturated fatty acid concentration of 200 µM.

- percentage block of cellular response over baseline, 04 (T2R04 (TAS2R04)): >90%
- percentage block of cellular response over baseline, 54 (T2R54 (TAS2R39)): 90%
SMILES: CC(C)=CCC/C(C)=C/C(=O)O [Compound 129]

From US20250344734A1, “UNSATURATED FATTY ACIDS AND THEIR USE TO MODIFY TASTE” (Firmenich Incorporated, priority 2022, published 2025)
